Results from the supplement of paper PMC10307832.

How the values were obtained:
Assay in all cases: relative viability (nuclei count vs DMSO), 5 days (fraction); higher = more cells survive
[1] = compound: CNC(=O)c1ccccc1Sc1ccc2c(/C=C/c3ccccn3)n[nH]c2c1 [Axitinib] + Cc1nc(Nc2ncc(C(=O)Nc3c(C)cccc3Cl)s2)cc(N2CCN(CCO)CC2)n1 [Dasatinib] (partner 0.075 µM)
Outline: (§1)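 Nuclei were stained with Hoechst during a one-step fixation (final 0.05% Triton X-100, 1% formaldehyde, 1 ug/ml Hoechst) carried out 5 days after dosing, then counted on 4× images. The cells, lung cancer lines in 1536-well plates, had been dosed by pin tool the day after seeding with one drug alone or a fixed anchor-drug dose plus five library-drug doses (not always all listed) in √10 steps. Relative viability is the nuclei count in treated wells divided by that in vehicle wells, and each value is the median of duplicate plates.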

[2] = compound: CC1=CC=C(C=C1)C(=O)CN2C3=C(CCCC3)SC2=N [Pifithrin_alpha] + Nc1ncn([C@H]2C[C@H](O)[C@@H](CO)O2)c(=O)n1 [Decitabine] (partner 2 µM)
Outline: as §1

[3] = compound: Nc1nc(Nc2ccc3c(c2)CC[C@@H](N2CCCC2)CC3)nn1-c1cc2c(nn1)-c1ccccc1CCC2 [Bemcentinib] + CC(=O)Nc1cccc(-n2c(=O)n(C3CC3)c(=O)c3c(Nc4ccc(I)cc4F)n(C)c(=O)c(C)c32)c1 [Trametinib] (partner 0.02 µM)
Outline: as §1

[4] = compound: Nc1nc(Nc2ccc3c(c2)CC[C@@H](N2CCCC2)CC3)nn1-c1cc2c(nn1)-c1ccccc1CCC2 [Bemcentinib] + CC(C)C[C@H](NC(=O)[C@H](Cc1ccccc1)NC(=O)c1cnccn1)B(O)O [Bortezomib] (partner 0.002 µM)
Outline: as §1

Cell Line | relative viability ([1]; first compound 0.005 µM) | relative viability ([1]; first compound 0.01581 µM) | relative viability ([1]; first compound 0.05 µM) | relative viability ([1]; first compound 0.1581 µM) | relative viability ([1]; first compound 0.5 µM) | relative viability ([2]; first compound 1 µM) | relative viability ([2]; first compound 3.162 µM) | relative viability ([2]; first compound 10 µM) | relative viability ([2]; first compound 31.62 µM) | relative viability ([2]; first compound 100 µM) | relative viability ([3]; first compound 0.04 µM) | relative viability ([3]; first compound 0.1265 µM) | relative viability ([3]; first compound 0.4 µM) | relative viability ([3]; first compound 1.265 µM) | relative viability ([3]; first compound 4 µM) | relative viability ([4]; first compound 0.04 µM) | relative viability ([4]; first compound 0.1265 µM) | relative viability ([4]; first compound 0.4 µM) | relative viability ([4]; first compound 1.265 µM) | relative viability ([4]; first compound 4 µM)
NCI-H2342 | 0.311 | 0.325 | 0.347 | 0.349 | 0.297 | 0.685 | 0.779 | 0.744 | 0.64 | 0.678 | 0.897 | 0.904 | 0.895 | 0.988 | 0.88 | – | – | – | – | –
NCI-H460 | 0.429 | 0.515 | 0.607 | 0.49 | 0.441 | 0.531 | 0.496 | 0.392 | 0.218 | 0.215 | 0.137 | 0.185 | 0.147 | 0.158 | 0.259 | 1.24 | 1.54 | 1.66 | 1.25 | 1.15
NCI-H322M | 0.253 | 0.231 | 0.239 | 0.259 | 0.246 | 0.72 | 0.708 | 0.719 | 0.78 | 0.784 | 0.477 | 0.534 | 0.496 | 0.504 | 0.51 | 1.25 | 1.25 | 1.23 | 1.34 | 1.34
HCC-827 | 0.302 | 0.209 | 0.356 | 0.398 | 0.274 | 0.136 | 0.357 | 0.31 | 0.334 | 0.345 | 0.545 | 0.548 | 0.534 | 0.599 | 0.586 | 0.979 | 1.05 | 1.16 | 0.762 | 1.06
HOP-62 | 0.693 | 0.704 | 0.77 | 0.684 | 0.726 | 0.233 | 0.167 | 0.232 | 0.218 | 0.263 | 0.341 | 0.337 | 0.402 | 0.395 | 0.458 | 0.753 | 0.822 | – | 0.779 | 0.736
Calu-6 | – | – | – | – | – | – | – | – | – | – | – | – | – | – | – | 1.05 | 1.07 | 1.07 | 1.08 | 1.12
NCI-H2023 | 0.537 | 0.525 | 0.701 | 0.515 | 0.621 | 0.237 | 0.211 | 0.23 | 0.201 | 0.242 | 0.564 | 0.675 | 0.572 | 0.762 | 0.657 | 0.938 | 1.03 | 1.04 | 1.15 | 1.12
NCI-H1648 | – | – | – | – | – | 0.478 | 0.597 | 0.464 | 0.406 | 0.496 | 0.636 | 0.455 | 0.477 | 0.481 | 0.408 | – | – | – | – | –
NCI-H358 | 0.116 | 0.153 | 0.155 | 0.142 | 0.146 | 0.206 | 0.205 | 0.19 | 0.217 | 0.16 | 0.12 | 0.125 | 0.118 | 0.134 | 0.145 | – | – | – | – | –
NCI-H1944 | 0.213 | 0.223 | 0.214 | 0.202 | 0.188 | 0.406 | 0.461 | 0.39 | 0.337 | 0.343 | 0.399 | 0.43 | 0.463 | 0.431 | 0.468 | – | – | – | – | –
